pIC50: −log10 of the molar value. Activity calls are given as the source filed them. No cut-off for these calls is given here.
Biological target: T1, Amine oxidase [flavin-containing] B (Homo sapiens, UniProt P27338)
T1 sequence (P27338 whole entry): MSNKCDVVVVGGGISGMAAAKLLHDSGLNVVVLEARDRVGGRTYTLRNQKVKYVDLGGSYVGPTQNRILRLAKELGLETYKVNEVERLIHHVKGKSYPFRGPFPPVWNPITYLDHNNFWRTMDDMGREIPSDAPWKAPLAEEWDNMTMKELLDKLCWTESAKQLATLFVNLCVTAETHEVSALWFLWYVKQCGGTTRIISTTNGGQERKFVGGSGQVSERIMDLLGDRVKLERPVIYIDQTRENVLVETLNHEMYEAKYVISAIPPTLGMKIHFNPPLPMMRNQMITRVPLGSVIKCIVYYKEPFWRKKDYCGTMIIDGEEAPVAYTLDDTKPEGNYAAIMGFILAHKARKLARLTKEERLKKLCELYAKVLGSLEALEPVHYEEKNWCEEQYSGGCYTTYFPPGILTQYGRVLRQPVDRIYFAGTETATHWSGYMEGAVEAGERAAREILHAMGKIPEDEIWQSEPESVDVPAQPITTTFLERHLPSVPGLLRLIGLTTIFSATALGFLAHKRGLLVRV
Assay: Inhibition of human recombinant MAO-B expressed in baculovirus-infected BTI cells at 10 uM using benzylamine as substrate preincubated with enzyme for 15 mins followed by substrate addition and measured after 20 mins by Amplex Red reagent based fluorescence analysis
Conditions: time 35 min

| SMILES | inhibition at 10 µM |
| --- | --- |
| O=C1/C(=C/c2ccc(OCc3ccccc3F)cc2)Oc2cc(O)ccc21 | 74.2% |
| O=C1/C(=C/c2cccc(OCc3cccc([N+](=O)[O-])c3)c2)Oc2cc(O)ccc21 | 33.9% |
| O=C1/C(=C/c2ccc(OCc3cccc([N+](=O)[O-])c3)cc2)Oc2cc(O)ccc21 | 48.5% |
| O=C1/C(=C/c2cccc(OCc3cccc(F)c3)c2)Oc2cc(O)ccc21 | 55.1% |
| O=C1/C(=C/c2cccc(OCc3ccc(F)cc3)c2)Oc2cc(O)ccc21 | 60.7% |
| O=C1/C(=C/c2cccc(OCc3ccccc3F)c2)Oc2cc(O)ccc21 | 73.9% |

The next lines start with the values.

| inhibition at 10 µM | SMILES |
| --- | --- |
| 69.6% | O=C1/C(=C/c2cccc(OCc3ccc(Br)cc3)c2)Oc2cc(O)ccc21 |
| 67.9% | O=C1/C(=C/c2ccc(OCc3cccc(Br)c3)cc2)Oc2cc(O)ccc21 |
| 62.7% | O=C1/C(=C/c2cccc(OCc3cccc(Br)c3)c2)Oc2cc(O)ccc21 |
| 81.3% | O=C1/C(=C/c2ccc(OCc3ccccc3Cl)cc2)Oc2cc(O)ccc21 |
| 35.6% | O=C1/C(=C/c2ccc(OCc3ccc(Cl)cc3)cc2)Oc2cc(O)ccc21 |
| 70.7% | O=C1/C(=C/c2cccc(OCc3ccc(Cl)cc3)c2)Oc2cc(O)ccc21 |

Biological target: T1, Amine oxidase [flavin-containing] B
Assay: Inhibition of human recombinant MAO-B expressed in baculovirus-infected BTI cells using benzylamine as substrate preincubated with enzyme for 15 mins followed by substrate addition and measured after 20 mins by Amplex Red reagent based fluorescence analysis
Conditions: not given

| SMILES | pIC50 |
| --- | --- |
| O=C1/C(=C/c2ccc(OCc3ccccc3F)cc2)Oc2cc(O)ccc21 | 6.12 |
| O=C1/C(=C/c2cccc(OCc3ccc(F)cc3)c2)Oc2cc(O)ccc21 | 5.63 |
| O=C1/C(=C/c2cccc(OCc3ccccc3F)c2)Oc2cc(O)ccc21 | 6.02 |

Second part, the compound after the results:

| pIC50 | SMILES |
| --- | --- |
| 5.78 | O=C1/C(=C/c2cccc(OCc3ccc(Br)cc3)c2)Oc2cc(O)ccc21 |
| 6.02 | O=C1/C(=C/c2ccc(OCc3cccc(Br)c3)cc2)Oc2cc(O)ccc21 |
| 5.69 | O=C1/C(=C/c2cccc(OCc3cccc(Br)c3)c2)Oc2cc(O)ccc21 |
| 6.42 | O=C1/C(=C/c2ccc(OCc3ccccc3Cl)cc2)Oc2cc(O)ccc21 |
| 5.74 | O=C1/C(=C/c2cccc(OCc3ccc(Cl)cc3)c2)Oc2cc(O)ccc21 |

Biological target: T2, Amine oxidase [flavin-containing] A (Homo sapiens, UniProt P21397)
T2 sequence (P21397 whole entry): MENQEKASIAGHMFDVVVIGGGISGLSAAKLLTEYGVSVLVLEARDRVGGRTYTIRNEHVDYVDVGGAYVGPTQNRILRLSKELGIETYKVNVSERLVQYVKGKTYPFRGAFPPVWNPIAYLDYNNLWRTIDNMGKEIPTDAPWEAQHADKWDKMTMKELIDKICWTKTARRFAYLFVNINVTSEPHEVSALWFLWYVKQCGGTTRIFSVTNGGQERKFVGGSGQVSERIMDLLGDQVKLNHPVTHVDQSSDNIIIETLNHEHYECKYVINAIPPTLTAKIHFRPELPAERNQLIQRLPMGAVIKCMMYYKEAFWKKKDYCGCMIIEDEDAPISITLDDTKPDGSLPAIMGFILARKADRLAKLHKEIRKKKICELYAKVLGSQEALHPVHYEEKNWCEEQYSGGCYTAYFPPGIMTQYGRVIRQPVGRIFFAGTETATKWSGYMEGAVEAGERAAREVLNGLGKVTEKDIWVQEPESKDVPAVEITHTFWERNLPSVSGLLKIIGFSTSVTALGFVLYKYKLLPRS
Assay: Inhibition of human recombinant MAO-A using p-tyramine as substrate preincubated with enzyme for 15 mins followed by substrate addition and measured after 20 mins by Amplex Red reagent based fluorescence analysis
Conditions: not given

| SMILES | pIC50 |
| --- | --- |
| O=C1/C(=C/c2ccc(OCc3ccccc3F)cc2)Oc2cc(O)ccc21 | < 4.00 |
| O=C1/C(=C/c2cccc(OCc3ccc(F)cc3)c2)Oc2cc(O)ccc21 | < 4.00 |
| O=C1/C(=C/c2cccc(OCc3ccccc3F)c2)Oc2cc(O)ccc21 | < 4.00 |

Next, values leading:

| pIC50 | SMILES |
| --- | --- |
| < 4.00 | O=C1/C(=C/c2cccc(OCc3ccc(Br)cc3)c2)Oc2cc(O)ccc21 |
| < 4.00 | COc1ccc(/C=C2\Oc3cc(O)ccc3C2=O)c(OC)c1OC |
| < 4.00 | O=C1/C(=C/c2ccc(OCc3cccc(Br)c3)cc2)Oc2cc(O)ccc21 |
| < 4.00 | O=C1/C(=C/c2cccc(OCc3cccc(Br)c3)c2)Oc2cc(O)ccc21 |
| < 4.00 | O=C1/C(=C/c2ccc(OCc3ccccc3Cl)cc2)Oc2cc(O)ccc21 |
| < 4.00 | O=C1/C(=C/c2cccc(OCc3ccc(Cl)cc3)c2)Oc2cc(O)ccc21 |

Organism: Homo sapiens
Assay: Selectivity index, ratio of IC50 for inhibition of human recombinant MAO-A to IC50 for inhibition of human recombinant MAO-B expressed in baculovirus-infected BTI cells
Conditions: not given

| SMILES | Ratio IC50 |
| --- | --- |
| O=C1/C(=C/c2cccc(OCc3ccc(Br)cc3)c2)Oc2cc(O)ccc21 | > 59.9 |
| O=C1/C(=C/c2ccc(OCc3ccccc3F)cc2)Oc2cc(O)ccc21 | > 131 |
| COc1ccc(/C=C2\Oc3cc(O)ccc3C2=O)c(OC)c1OC | > 583 |
| O=C1/C(=C/c2ccc(OCc3cccc(Br)c3)cc2)Oc2cc(O)ccc21 | > 106 |
| O=C1/C(=C/c2cccc(OCc3cccc(Br)c3)c2)Oc2cc(O)ccc21 | > 49.6 |
| O=C1/C(=C/c2ccc(OCc3ccccc3Cl)cc2)Oc2cc(O)ccc21 | > 264 |
| O=C1/C(=C/c2cccc(OCc3ccc(Cl)cc3)c2)Oc2cc(O)ccc21 | > 55.2 |
| O=C1/C(=C/c2cccc(OCc3ccc(F)cc3)c2)Oc2cc(O)ccc21 | > 42.2 |
| O=C1/C(=C/c2cccc(OCc3ccccc3F)c2)Oc2cc(O)ccc21 | > 106 |

Biological target: T1, Amine oxidase [flavin-containing] B
Assay: Irreversible inhibition of MAO-B (unknown origin) measured after drug wash-out
Conditions: not given

| SMILES | inhibition (INH) |
| --- | --- |
| O=C1/C(=C/c2ccc(OCc3ccccc3Cl)cc2)Oc2cc(O)ccc21 | Active |

Tested on: BV-2
Assay: Cytotoxicity against mouse BV-2 cells assessed as effect on cell viability upto 10 uM
Assay type: toxicity, cell-based
Conditions: bv-2, 10 µM

| SMILES | Activity |
| --- | --- |
| O=C1/C(=C/c2ccc(OCc3ccccc3F)cc2)Oc2cc(O)ccc21 | Non-Toxic |
| O=C1/C(=C/c2ccc(OCc3cccc(Br)c3)cc2)Oc2cc(O)ccc21 | Non-Toxic |
| O=C1/C(=C/c2ccc(OCc3ccccc3Cl)cc2)Oc2cc(O)ccc21 | Non-Toxic |

Tested on: MAO-B
Assay: Safety ratio of cytotoxicity against mouse BV-2 cells to IC50 for inhibition of human recombinant MAO-B expressed in baculovirus-infected BTI cells
Assay type: toxicity
Conditions: not given

| SMILES | selectivity ratio |
| --- | --- |
| O=C1/C(=C/c2ccc(OCc3ccccc3F)cc2)Oc2cc(O)ccc21 | > 13.1 |
| O=C1/C(=C/c2ccc(OCc3cccc(Br)c3)cc2)Oc2cc(O)ccc21 | 10.6 |
| O=C1/C(=C/c2ccc(OCc3ccccc3Cl)cc2)Oc2cc(O)ccc21 | > 27 |

Tested on: BV-2
Assay: Anti-neuroinflammatory activity against mouse BV-2 cells assessed as suppression of LPS-induced NO production
Assay type: functional, cell-based
Conditions: not given

| SMILES | Activity |
| --- | --- |
| O=C1/C(=C/c2ccc(OCc3ccccc3Cl)cc2)Oc2cc(O)ccc21 | Dose-Dependent Effect |

Tested on: BV-2
Assay: Anti-neuroinflammatory activity against mouse BV-2 cells assessed as suppression of LPS-induced NO production at 1 uM
Assay type: functional, cell-based
Conditions: not given

| SMILES | Activity |
| --- | --- |
| O=C1/C(=C/c2ccc(OCc3ccccc3Cl)cc2)Oc2cc(O)ccc21 | inactive |

Tested on: BV-2
Assay: Anti-neuroinflammatory activity against mouse BV-2 cells assessed as suppression of LPS-induced NO production at 3 uM
Assay type: functional, cell-based
Conditions: not given

| SMILES | Activity |
| --- | --- |
| O=C1/C(=C/c2ccc(OCc3ccccc3Cl)cc2)Oc2cc(O)ccc21 | Active |

Tested on: BV-2
Assay: Anti-neuroinflammatory activity against mouse BV-2 cells assessed as suppression of LPS-induced PGE2 production at 5 to 10 uM
Assay type: functional, cell-based
Conditions: dose 5-10 µM

| SMILES | Activity |
| --- | --- |
| O=C1/C(=C/c2ccc(OCc3ccccc3Cl)cc2)Oc2cc(O)ccc21 | Active |

Source: ChEMBL document CHEMBL5576105, “Synthesis and biological evaluation of O4'-benzyl-hispidol derivatives and analogs as dual monoamine oxidase-B inhibitors and anti-neuroinflammatory agents” (Bioorg Med Chem, 2024)
